Assay results as given in patent US6727066B2, “Genes expressed in treated human C3A liver cell cultures” (Incyte Corporation, priority 2000, dated 2004).

What was measured:
[1] = tested on: human C3A liver cell cultures; assay: Microarray differential expression of cDNAs in treated human C3A liver cell cultures; type: cell-based; conditions: change vs untreated C3A cells
Text: Incyte clones represent template sequences derived from the LIFESEQ GOLD assembled human sequence database (Incyte Genomics). In cases where more than one clone was available for a particular template, the 5′-most clone in the template was used on the microarray. The GENEALBUM GEM series 1-6 microarrays (Incyte Genomics) contain 52,616 array elements which represent 17,472 annotated clusters and 35,144 unannotated clusters. The HUMAN GENOME GEM series 1-3 microarrays (Incyte Genomics) contain 28,626 array elements which represent 10,068 annotated clusters and 18,558 unannotated clusters. For the UNIGEM series microarrays (Incyte Genomics), Incyte clones were mapped to non-redundant Unigene clusters (Unigene database (build 46), NCBI; Shuler (1997) J Mol Med 75:694-698), and the 5′ clone with the strongest BLAST alignment (at least 90% identity and 100 bp overlap) was chosen, verified, and used in the construction of the microarray. The UNIGEM V microarray (Incyte Genomics) contains 7075 array elements which represent 4610 annotated genes and 2,184 unannotated clusters.
To construct microarrays, cDNAs were amplified from bacterial cells using primers complementary to vector sequences flanking the cDNA insert. […] Amplified cDNAs were then purified using […]-400 columns (APB). Purified cDNAs were immobilized on polymer-coated glass slides. Glass microscope slides (Corning, Corning N.Y.) were cleaned by ultrasound in 0.1% SDS and acetone, with extensive distilled water washes between and after treatments. Glass slides were etched in 4% hydrofluoric acid (VWR Scientific Products, West Chester Pa.), washed thoroughly in distilled water, and coated with 0.05% aminopropyl silane (Sigma Aldrich) in 95% ethanol. Coated slides were cured in a 110° C. oven. cDNAs were applied to the coated glass substrate using a procedure described in U.S. Pat. No. 5,807,522. One microliter of the cDNA at an average concentration of 100 ng/ul was loaded into the open capillary printing element by a high-speed robotic apparatus which then deposited about 5 nl of cDNA per slide.
Microarrays were UV-crosslinked using a […] UV-crosslinker (Stratagene), and then washed at room temperature once in 0.2% SDS and three times in distilled water. Non-specific binding sites were blocked by incubation of microarrays in 0.2% casein in phosphate buffered saline (Tropix, Bedford Mass.) for 30 minutes at 60° C. followed by washes in 0.2% SDS and distilled water as before.
Early confluent C3A cells (ATTC, Manassas Va.) were treated with captopril (0.5, 2, 48, and 60 μg/ml) for 1, 3, and 6 hours. Early confluent C3A cells were treated with enalapril (0.5, 2, 48, and 60 μg/ml) for 1, 3, and 6 hours. Early confluent C3A cells were treated with LY294002 (0.5, 2, 15, and 25 μg/ml) for 1, 3, and 6 hours. Early confluent C3A cells were starved of insulin for 3 days prior to treatment, then treated with LY294002 (10 μM) for 2, 24, 36, and 72 hours in the presence of insulin. Early confluent C3A cells were treated with DES (1, 10, and 100 μM) for 1, 3, and 6 hours. Early confluent C3A cells were treated with dexamethasone (1 and 20 μM) for 0, 2, 6, and 24 hours. Early confluent C3A cells were treated with MCA (0.5 and 10 μM) for 2, 6, and 24 hours. In all cases mRNA from untreated early confluent cells were prepared in parallel as described below.
Cells were harvested and lysed in 1 ml of TRIZOL reagent (5×10^6 cells/ml; Life Technologies). The lysates were vortexed thoroughly and incubated at room temperature for 2-3 minutes and extracted with 0.5 ml chloroform. The extract was mixed, incubated at room temperature for 5 minutes, and centrifuged at 15,000 rpm for 15 minutes at 4° C. The aqueous layer was collected and an equal volume of isopropanol was added.

[2] = cited from earlier work

CCOC(=O)[C@H](CCc1ccccc1)N[C@@H](C)C(=O)N1CCC[C@H]1C(=O)O [Enalapril]
expression level of cDNA clone 63038 [1]: −2.97
expression level of cDNA clone 118501 [1]: 6.06
expression level of cDNA clone 160822 [1]: 2.39
expression level of cDNA clone 279898 [1]: 4.08
expression level of cDNA clone 630625 [1]: 2.51
expression level of cDNA clone 1308112 [1]: 2.14
expression level of cDNA clone 1368834 [1]: 2.43
expression level of cDNA clone 1379063 [1]: −2.44
expression level of cDNA clone 1448718 [1]: −3.91
expression level of cDNA clone 1696224 [1]: 3.97
expression level of cDNA clone 1711151 [1]: 2.48
expression level of cDNA clone 1861456 [1]: −2.51
expression level of cDNA clone 1930235 [1]: 3
expression level of cDNA clone 1975268 [1]: −2.75
expression level of cDNA clone 1998269 [1]: 2.27
expression level of cDNA clone 2055569 [1]: −3.1
expression level of cDNA clone 2123516 [1]: 3.71
expression level of cDNA clone 2513883 [1]: 3.82
expression level of cDNA clone 2757583 [1]: 4.13
expression level of cDNA clone 2884613 [1]: 2.51
expression level of cDNA clone 2921991 [1]: −4.67
expression level of cDNA clone 2933775 [1]: 4.73
expression level of cDNA clone 2955163 [1]: 2.33
expression level of cDNA clone 4556538 [1]: 3.02
time of peak plasma concentration ([2]; enalapril given orally): within an hour
oral bioavailability ([2]; given orally, not reduced by food): about 60%
half-life ([2]; in vivo): 1.3 h

C[C@H](N[C@@H](CCc1ccccc1)C(=O)O)C(=O)N1CCC[C@H]1C(=O)O [Enalaprilat, enalaprilat]
plasma half-life ([2]; in vivo): about 11 hours

O=c1cc(N2CCOCC2)oc2c(-c3ccccc3)cccc12 [LY294002]
expression level of cDNA clone 172023 [1]: −3.38
expression level of cDNA clone 279898 [1]: 6.7
expression level of cDNA clone 459372 [1]: 4.65
expression level of cDNA clone 1315663 [1]: −3.27
expression level of cDNA clone 1468660 [1]: −2.28
expression level of cDNA clone 1975268 [1]: −3.45
expression level of cDNA clone 1998269 [1]: −2.46
expression level of cDNA clone 2769888 [1]: −3.37
expression level of cDNA clone 3427373 [1]: 4.2
expression level of cDNA clone 3715059 [1]: −4.3
expression level of cDNA clone 4556538 [1]: 2.45

Cc1ccc2cc3c(ccc4ccccc43)c3c2c1CC3 [MCA, 3-methylcholanthrene]
expression level of cDNA clone 72713 [1]: 3
expression level of cDNA clone 85606 [1]: 2.96
expression level of cDNA clone 118501 [1]: 4.54
expression level of cDNA clone 121785 [1]: 3.3
expression level of cDNA clone 136073 [1]: 3.1
expression level of cDNA clone 279898 [1]: 5.48
expression level of cDNA clone 311346 [1]: 4.59
expression level of cDNA clone 318486 [1]: 4.11
expression level of cDNA clone 408886 [1]: 4.93
expression level of cDNA clone 450856 [1]: 2.89
expression level of cDNA clone 452321 [1]: 4.3
expression level of cDNA clone 454839 [1]: 3.4
expression level of cDNA clone 462069 [1]: 2.41
expression level of cDNA clone 481402 [1]: 3.22
expression level of cDNA clone 510056 [1]: 5.65
expression level of cDNA clone 511448 [1]: 3.05
expression level of cDNA clone 560115 [1]: −2.61
expression level of cDNA clone 604019 [1]: 3.28
expression level of cDNA clone 630625 [1]: 2.25
expression level of cDNA clone 669498 [1]: −2.97
expression level of cDNA clone 701484 [1]: 2.51
expression level of cDNA clone 872017 [1]: 2.85
expression level of cDNA clone 1308112 [1]: 2.28
expression level of cDNA clone 1316801 [1]: 3.38
expression level of cDNA clone 1379063 [1]: −3.63
expression level of cDNA clone 1381654 [1]: 2.64
expression level of cDNA clone 1457424 [1]: 2.93
expression level of cDNA clone 1522880 [1]: 2.74
expression level of cDNA clone 1560906 [1]: 3.13
expression level of cDNA clone 1616783 [1]: 2.63
expression level of cDNA clone 1619292 [1]: −2.8
expression level of cDNA clone 1623214 [1]: −3.12
expression level of cDNA clone 1630990 [1]: 3.34
expression level of cDNA clone 1696224 [1]: 4.4
expression level of cDNA clone 1756875 [1]: 2.99
expression level of cDNA clone 1786554 [1]: 2.67
expression level of cDNA clone 1833362 [1]: −2.33
expression level of cDNA clone 1890576 [1]: −3.07
expression level of cDNA clone 1930235 [1]: 2.93
expression level of cDNA clone 1975268 [1]: −2.51
expression level of cDNA clone 1998269 [1]: 2.46
expression level of cDNA clone 2055867 [1]: −2.67
expression level of cDNA clone 2120743 [1]: 2.97
expression level of cDNA clone 2123516 [1]: 3.83
expression level of cDNA clone 2195427 [1]: 2.32
expression level of cDNA clone 2232658 [1]: 2.25
expression level of cDNA clone 2252107 [1]: 2.44
expression level of cDNA clone 2293496 [1]: −2.88
expression level of cDNA clone 2343348 [1]: 2.89
expression level of cDNA clone 2511277 [1]: 3.07
expression level of cDNA clone 2513883 [1]: 3.67
expression level of cDNA clone 2520894 [1]: 3.21
expression level of cDNA clone 2579218 [1]: 2.42
expression level of cDNA clone 2660756 [1]: 2.25
expression level of cDNA clone 2675232 [1]: 3.09
expression level of cDNA clone 2695371 [1]: 2.68
expression level of cDNA clone 2708055 [1]: 2.45
expression level of cDNA clone 2756333 [1]: 2.66
expression level of cDNA clone 2757583 [1]: 4.31
expression level of cDNA clone 2765271 [1]: 2.25
expression level of cDNA clone 2822027 [1]: 2.96
expression level of cDNA clone 2825358 [1]: 2.44
expression level of cDNA clone 2831490 [1]: 2.48
expression level of cDNA clone 2860918 [1]: −3.2
expression level of cDNA clone 2884613 [1]: 2.2
expression level of cDNA clone 2891601 [1]: 2.56
expression level of cDNA clone 2912637 [1]: −4.29
expression level of cDNA clone 2921991 [1]: −3.43
expression level of cDNA clone 2955163 [1]: 3.24
expression level of cDNA clone 2956444 [1]: 3.04
expression level of cDNA clone 3074113 [1]: 3.03
expression level of cDNA clone 3108506 [1]: 3.02
expression level of cDNA clone 3158828 [1]: 2.67
expression level of cDNA clone 3222802 [1]: 3.23
expression level of cDNA clone 3225977 [1]: 2.59
expression level of cDNA clone 3381870 [1]: 2.3
expression level of cDNA clone 3407653 [1]: 2.7
expression level of cDNA clone 3472927 [1]: 2.77
expression level of cDNA clone 3493381 [1]: 2.62
expression level of cDNA clone 3606046 [1]: 3.24
expression level of cDNA clone 3792988 [1]: 3.23
expression level of cDNA clone 4019706 [1]: 3.55
expression level of cDNA clone 4070979 [1]: 2.44
expression level of cDNA clone 4091186 [1]: 2.64
expression level of cDNA clone 4092112 [1]: 3.55
expression level of cDNA clone 4203937 [1]: 7.13
expression level of cDNA clone 4246966 [1]: 3.03
expression level of cDNA clone 4254855 [1]: 2.3
expression level of cDNA clone 4284384 [1]: 2.73
expression level of cDNA clone 4287327 [1]: −2.54
expression level of cDNA clone 4403805 [1]: 2.4
expression level of cDNA clone 4508879 [1]: 2.68
expression level of cDNA clone 4549259 [1]: 2.53
expression level of cDNA clone 4721130 [1]: 3.57
expression level of cDNA clone 5093071 [1]: 2.36
expression level of cDNA clone 5102731 [1]: 2.33
expression level of cDNA clone 5266015 [1]: 2.47
expression level of cDNA clone 5266376 [1]: 2.54
expression level of cDNA clone 5512044 [1]: 2.26
